One test addresses Bcl-2-like protein 1 (Homo sapiens, UniProt Q07817). Briefly: Inhibition of human Bcl-xL expressed in Escherichia coli BL21(DE3) T1R cells preincubated under shaking condition for 1 min and measured after 3 hrs by TR-FRET assay. Background: Time-resolved FRET reads energy transfer from a long-lived donor to a nearby acceptor.
The subject of a further test is RS4-11. Kind of test: Cytotoxicity against human RS4-11 cells assessed as reduction in cell viability by CellTiter-Glo assay. Format: functional, cell-based. In general terms: ATP-based viability assays read luminescence as a measure of living cells.
For the next test, the system named is MOLT-4. Kind of test: Cytotoxicity against human MOLT-4 cells assessed as reduction in cell viability by CellTiter-Glo assay. Format: functional, cell-based.
Test [1] concerns the target Apoptosis regulator Bcl-2 (Homo sapiens, UniProt P10415). Briefly: Inhibition of human Bcl-2 expressed in Escherichia coli BL21(DE3) T1R cells preincubated under shaking condition for 1 min and measured after 3 hrs by TR-FRET assay.

The structures appear in SMILES notation. Where only a bound is given, the exact number is not on record here.

Chain of Apoptosis regulator Bcl-2 (P10415 whole entry): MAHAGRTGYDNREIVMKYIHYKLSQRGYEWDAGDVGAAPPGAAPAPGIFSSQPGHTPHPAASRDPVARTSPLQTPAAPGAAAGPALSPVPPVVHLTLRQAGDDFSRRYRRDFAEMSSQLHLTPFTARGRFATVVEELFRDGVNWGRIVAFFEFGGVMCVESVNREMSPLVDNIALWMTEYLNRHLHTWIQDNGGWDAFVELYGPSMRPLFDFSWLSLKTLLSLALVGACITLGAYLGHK
Chain of Bcl-2-like protein 1 (Q07817 whole entry): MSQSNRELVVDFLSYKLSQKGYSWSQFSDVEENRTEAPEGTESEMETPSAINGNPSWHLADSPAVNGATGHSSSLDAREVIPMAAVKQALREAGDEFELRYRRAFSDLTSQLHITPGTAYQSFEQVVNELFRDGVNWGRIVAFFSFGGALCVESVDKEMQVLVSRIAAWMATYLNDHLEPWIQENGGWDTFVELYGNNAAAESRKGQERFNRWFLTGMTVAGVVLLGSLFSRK

The Ki is a dissociation constant, usually derived from enzyme kinetics or from competition with a known ligand. A low value points to a stronger hold on the target. In general, EC50 refers to the concentration needed to bring the measured effect to its halfway point. With `COC1(CNc2ccc(S(=O)(=O)NC(=O)c3ccc(N4CCN5CC6=C(c7ccc(Cl)cc7)CC(C)(C)C[C@H]6OCCCOC[C@@H]5C4)cc3N3CCCOc4nc5[nH]ccc5cc43)cc2[N+](=O)[O-])CCOCC1`, the results for the Ki (at Bcl-2-like protein 1; in test [1]) were 40.3 nM and 2.09 nM, respectively. Besides, the EC50 is 4.38 nM in the test with RS4-11 and more than 10000 nM with MOLT-4.

On to `COCC1(F)CC(CNc2ccc(S(=O)(=O)NC(=O)c3ccc(N4CCN5CC6=C(c7ccc(Cl)cc7)CC(C)(C)C[C@H]6OCCCOC[C@@H]5C4)cc3N3CCCOc4nc5[nH]ccc5cc43)cc2[N+](=O)[O-])C1` (stereo partly drawn), for which the figures for the inhibitory constant (Ki) (at Bcl-2-like protein 1; in test [1]) were 25.8 nM and 0.28 nM, respectively. Also, the half-maximal effective concentration (EC50) was 10.9 nM in the test with RS4-11 and more than 10000 nM in the test with MOLT-4.

Regarding `CC1(C)CC(c2ccc(Cl)cc2)=C2CN3CCN(c4ccc(C(=O)NS(=O)(=O)c5ccc(NC[C@H]6CC[C@](C)(O)CO6)c([N+](=O)[O-])c5)c(N5CCCOc6nc7[nH]ccc7cc65)c4)C[C@H]3COCCCO[C@@H]2C1`, the Ki at Bcl-2-like protein 1 is 9.3 nM; in test [1] it was 0.049 nM. Besides, the 50% effective concentration (EC50) with RS4-11 was 0.651 nM; in the test with MOLT-4, 1220 nM.

For `CC1(C)CC(c2ccc(Cl)cc2)=C2CN3CCN(c4ccc(C(=O)NS(=O)(=O)c5ccc(NC[C@H]6CC[C@H](O)CO6)c([N+](=O)[O-])c5)c(N5CCCOc6nc7[nH]ccc7cc65)c4)C[C@H]3COCCCO[C@@H]2C1`, the EC50 came out at 0.966 nM in the test on RS4-11 and 823 nM in the test with MOLT-4.

As for `CC1(C)CC(c2ccc(Cl)cc2)=C2CN3CCN(c4ccc(C(=O)NS(=O)(=O)c5ccc(NC[C@H]6COCCO6)c([N+](=O)[O-])c5)c(N5CCCOc6nc7[nH]ccc7cc65)c4)C[C@H]3COCCCO[C@@H]2C1`, the Ki at Bcl-2-like protein 1 was determined as 5.76 nM; in test [1] it was 0.034 nM. Besides, the results for the EC50 with RS4-11 and in the test with MOLT-4 were 1.36 nM and 1410 nM, respectively.

For `CC1(C)CC(c2ccc(Cl)cc2)=C2CN3CCN(c4ccc(C(=O)NS(=O)(=O)c5ccc(NCC6(O)CCOCC6)c([N+](=O)[O-])c5)c(N5CCCOc6nc7[nH]ccc7cc65)c4)C[C@H]3COCCCO[C@@H]2C1`, the values for the Ki (on Bcl-2-like protein 1; in test [1]) were 8.31 nM and 0.223 nM, respectively. The figures for the half-maximal effective concentration (EC50) in the test with RS4-11 and with MOLT-4 were 1.43 nM and 426 nM, respectively.

For the molecule `CC1(C)CC(c2ccc(Cl)cc2)=C2CN3CCN(c4ccc(C(=O)NS(=O)(=O)c5ccc(NC[C@H]6CC[C@@](C)(O)CC6)c([N+](=O)[O-])c5)c(N5CCCOc6nc7[nH]ccc7cc65)c4)C[C@H]3COCCCO[C@@H]2C1`, the inhibition constant (Ki) came to 11.1 nM at Bcl-2-like protein 1 and 0.061 nM in test [1]. Also, the EC50 is 1.47 nM with RS4-11 and 117 nM with MOLT-4.

For the molecule `CO[C@H]1C[C@H](Nc2ccc(S(=O)(=O)NC(=O)c3ccc(N4CCN5CC6=C(c7ccc(Cl)cc7)CC(C)(C)C[C@H]6OCCCOC[C@@H]5C4)cc3N3CCCOc4nc5[nH]ccc5cc43)cc2[N+](=O)[O-])C1`, the results for the Ki (on Bcl-2-like protein 1; in test [1]) were 39 nM and 2.58 nM, respectively. The EC50 was 4.1 nM in the test on RS4-11 and more than 10000 nM in the test on MOLT-4.

With `CC1(C)CC(c2ccc(Cl)cc2)=C2CN3CCN(c4ccc(C(=O)NS(=O)(=O)c5ccc(NC[C@H]6CC[C@](C)(O)CC6)c(Cl)c5)c(N5CCCOc6nc7[nH]ccc7cc65)c4)C[C@H]3COCCCO[C@@H]2C1`, the Ki on Bcl-2-like protein 1 is 29.7 nM; in test [1], 0.085 nM. Moreover, the half-maximal effective concentration (EC50) with RS4-11 is 17.7 nM; with MOLT-4, more than 10000 nM.

As for `CO[C@H]1CC[C@H](CNc2ccc(S(=O)(=O)NC(=O)c3ccc(N4CCN5CC6=C(c7ccc(Cl)cc7)CC(C)(C)C[C@H]6OCCCOC[C@@H]5C4)cc3N3CCCOc4nc5[nH]ccc5cc43)cc2[N+](=O)[O-])OC1`, in the test on MOLT-4, the EC50 worked out at 1700 nM.

For the molecule `CC1(C)CC(c2ccc(Cl)cc2)=C2CN3CCN(c4ccc(C(=O)NS(=O)(=O)c5cnc(OCC6(F)CCOCC6)c(Cl)c5)c(N5CCCOc6nc7[nH]ccc7cc65)c4)C[C@H]3COCCCO[C@@H]2C1`, the Ki on Bcl-2-like protein 1 is more than 661 nM. Besides, the 50% effective concentration (EC50) in the test on RS4-11 was 5.46 nM; in the test on MOLT-4, more than 10000 nM.

The values are drawn from ChEMBL document CHEMBL5365550, “Targeting the Inhibition of B-Cell Lymphoma 2 Protein for the Treatment of Cancer” (ACS Med Chem Lett, 2023).
